{"source": "ChEMBL document CHEMBL4715829", "about": "“Heterodimeric Rifampicin-Tobramycin conjugates break intrinsic resistance of Pseudomonas aeruginosa to doxycycline and chloramphenicol in vitro and in a Galleria mellonella in vivo model” (Eur J Med Chem, 2019)", "assay_type_in_all_cases": "functional", "key": {"Pseudomonas aeruginosa [1]": {"system": "Pseudomonas aeruginosa", "experiment": "Antibacterial activity against Pseudomonas aeruginosa 100036 assessed as potentiation of chloramphenicol-induced antibacterial activity by measuring chloramphenicol MIC at 9.8 uM incubated for 18 hrs in presence of chloramphenicol by broth microdilution assay (reference value: 1024 ug/ml)"}, "Pseudomonas aeruginosa [2]": {"system": "Pseudomonas aeruginosa", "experiment": "Antibacterial activity against Pseudomonas aeruginosa 262-101856 assessed as potentiation of chloramphenicol-induced antibacterial activity by measuring chloramphenicol MIC at 9.8 uM incubated for 18 hrs in presence of chloramphenicol by broth microdilution assay (reference value: 2048 ug/ml)"}, "Pseudomonas aeruginosa [3]": {"system": "Pseudomonas aeruginosa", "experiment": "Antibacterial activity against Pseudomonas aeruginosa 91433 assessed as potentiation of doxycycline-induced antibacterial activity by measuring doxycycline MIC at 9.8 uM incubated for 18 hrs in presence of doxycycline by broth microdilution assay (reference value: 32 ug/ml)"}, "Pseudomonas aeruginosa [4]": {"system": "Pseudomonas aeruginosa", "experiment": "Antibacterial activity against Pseudomonas aeruginosa 259-96918 assessed as fractional inhibitory concentration incubated for 18 hrs in presence of rifampicin by broth microdilution assay"}, "Pseudomonas aeruginosa [5]": {"system": "Pseudomonas aeruginosa", "experiment": "Antibacterial activity against Pseudomonas aeruginosa 260-97103 assessed as fractional inhibitory concentration incubated for 18 hrs in presence of rifampicin by broth microdilution assay"}, "Pseudomonas aeruginosa [6]": {"system": "Pseudomonas aeruginosa", "experiment": "Antibacterial activity against Pseudomonas aeruginosa 264-101354 assessed as fractional inhibitory concentration incubated for 18 hrs in presence of rifampicin by broth microdilution assay"}, "Pseudomonas aeruginosa [7]": {"system": "Pseudomonas aeruginosa", "experiment": "Potentiation of chloramphenicol-induced antibacterial activity against wild type Pseudomonas aeruginosa PAO1 assessed as fold change in chloramphenicol MIC at <=9.8 uM incubated for 18 hrs in presence of chloramphenicol by broth microdilution assay", "conditions": "dose microM <=9.8"}, "Pseudomonas aeruginosa [8]": {"system": "Pseudomonas aeruginosa", "experiment": "Potentiation of chloramphenicol-induced antibacterial activity against Pseudomonas aeruginosa PAO200 harboring mexA-mexB-oprM deletion mutant assessed as fold change in chloramphenicol MIC at <=9.8 uM incubated for 18 hrs in presence of chloramphenicol by broth microdilution assay", "conditions": "dose microM <=9.8"}, "Pseudomonas aeruginosa [9]": {"system": "Pseudomonas aeruginosa", "experiment": "Antibacterial activity against Pseudomonas aeruginosa 260-97103 infected in Galleria mellonella larvae assessed as survival of larvae at 100 mg/kg treated at 3 hrs post-infection in presence of doxycycline and measured after 24 hrs relative to control"}, "Pseudomonas aeruginosa [10]": {"system": "Pseudomonas aeruginosa", "experiment": "Antibacterial activity against Pseudomonas aeruginosa 260-97103 infected in Galleria mellonella larvae assessed as survival of larvae at 75 mg/kg treated at 3 hrs post-infection in presence of chloramphenicol and measured after 18 hrs relative to control"}, "Pseudomonas aeruginosa [11]": {"system": "Pseudomonas aeruginosa", "experiment": "Antibacterial activity against Pseudomonas aeruginosa 260-97103 infected in Galleria mellonella larvae assessed as survival of larvae at 75 mg/kg treated at 3 hrs post-infection in presence of chloramphenicol and measured after 24 hrs relative to control"}, "Pseudomonas aeruginosa [12]": {"system": "Pseudomonas aeruginosa", "experiment": "Antibacterial activity against Pseudomonas aeruginosa 260-97103 infected in Galleria mellonella larvae assessed as mortality of larvae at 100 mg/kg administered at 3 hrs post-infection and measured every 6 hrs for 36 hrs"}, "Pseudomonas aeruginosa [13]": {"system": "Pseudomonas aeruginosa", "experiment": "Potentiation of doxycycline-induced antibacterial activity against Pseudomonas aeruginosa 100036 assessed as fold change in doxycycline MIC at 9.8 uM incubated for 18 hrs in presence of doxycycline by broth microdilution assay relative to control"}, "Pseudomonas aeruginosa [14]": {"system": "Pseudomonas aeruginosa", "experiment": "Potentiation of chloramphenicol-induced antibacterial activity against Pseudomonas aeruginosa 91433 assessed as fold change in chloramphenicol MIC at 9.8 uM incubated for 18 hrs in presence of chloramphenicol by broth microdilution assay relative to control"}, "Pseudomonas aeruginosa [15]": {"system": "Pseudomonas aeruginosa", "experiment": "Antibacterial activity against Pseudomonas aeruginosa 100036 assessed as potentiation of doxycycline-induced antibacterial activity by measuring doxycycline MIC at 7.6 uM incubated for 18 hrs in presence of doxycycline by broth microdilution assay (reference value: 64 ug/ml)"}, "Pseudomonas aeruginosa [16]": {"system": "Pseudomonas aeruginosa", "experiment": "Antibacterial activity against Pseudomonas aeruginosa 264-101354 assessed as potentiation of doxycycline-induced antibacterial activity by measuring doxycycline MIC at 7.6 uM incubated for 18 hrs in presence of doxycycline by broth microdilution assay (reference value: 64 ug/ml)"}, "Pseudomonas aeruginosa [17]": {"system": "Pseudomonas aeruginosa", "experiment": "Antibacterial activity against Pseudomonas aeruginosa 264-101354 assessed as potentiation of chloramphenicol-induced antibacterial activity by measuring chloramphenicol MIC at 7.6 uM incubated for 18 hrs in presence of chloramphenicol by broth microdilution assay (reference value: 4096 ug/ml)"}, "Pseudomonas aeruginosa [18]": {"system": "Pseudomonas aeruginosa", "experiment": "Antibacterial activity against Pseudomonas aeruginosa 262-101856 assessed as potentiation of chloramphenicol-induced antibacterial activity by measuring chloramphenicol MIC at 7.6 uM incubated for 18 hrs in presence of chloramphenicol by broth microdilution assay (reference value: 2048 ug/ml)"}, "Pseudomonas aeruginosa [19]": {"system": "Pseudomonas aeruginosa", "experiment": "Potentiation of chloramphenicol-induced antibacterial activity against Pseudomonas aeruginosa 100036 assessed as fold change in chloramphenicol MIC at 7.6 uM incubated for 18 hrs in presence of chloramphenicol by broth microdilution assay relative to control"}, "Pseudomonas aeruginosa [20]": {"system": "Pseudomonas aeruginosa", "experiment": "Potentiation of chloramphenicol-induced antibacterial activity against Pseudomonas aeruginosa 101243 assessed as fold change in chloramphenicol MIC at 7.6 uM incubated for 18 hrs in presence of chloramphenicol by broth microdilution assay relative to control"}, "Acinetobacter baumannii [21]": {"system": "Acinetobacter baumannii", "experiment": "Potentiation of doxycycline-induced antibacterial activity against Acinetobacter baumannii ATCC 17978 assessed as fold change in doxycycline MIC at 7.6 uM incubated for 18 hrs in presence of doxycycline by broth microdilution assay relative to control"}, "Acinetobacter baumannii [22]": {"system": "Acinetobacter baumannii", "experiment": "Potentiation of chloramphenicol-induced antibacterial activity against Acinetobacter baumannii ATCC 17978 assessed as fold change in chloramphenicol MIC at 7.6 uM incubated for 18 hrs in presence of chloramphenicol by broth microdilution assay relative to control"}, "Enterobacter cloacae": {"system": "Enterobacter cloacae", "experiment": "Potentiation of chloramphenicol-induced antibacterial activity against Enterobacter cloacae ATCC 117029 assessed as fold change in chloramphenicol MIC at 7.6 uM incubated for 18 hrs in presence of chloramphenicol by broth microdilution assay relative to control"}, "Pseudomonas aeruginosa [23]": {"system": "Pseudomonas aeruginosa", "experiment": "Antibacterial activity against wild type Pseudomonas aeruginosa PAO1 assessed as reduction in bacterial growth by measuring chloramphenicol MIC at 0.25 ug/ml incubated for 18 hrs in presence of chloramphenicol by broth microdilution assay (reference value: 32 ug/ml)", "conditions": "dose 0.25 µg/ml"}, "Pseudomonas aeruginosa [24]": {"system": "Pseudomonas aeruginosa", "experiment": "Antibacterial activity against Pseudomonas aeruginosa 259-96918 assessed as reduction in bacterial growth by measuring chloramphenicol MIC at 8 ug/ml incubated for 18 hrs in presence of chloramphenicol by broth microdilution assay (reference value: 1024 ug/ml)", "conditions": "dose 8 µg/ml"}, "Pseudomonas aeruginosa [25]": {"system": "Pseudomonas aeruginosa", "experiment": "Antibacterial activity against Pseudomonas aeruginosa 259-96918 assessed as fractional inhibitory concentration incubated for 18 hrs in presence of doxycycline by broth microdilution assay"}, "Pseudomonas aeruginosa [26]": {"system": "Pseudomonas aeruginosa", "experiment": "Antibacterial activity against Pseudomonas aeruginosa 260-97103 assessed as fractional inhibitory concentration incubated for 18 hrs in presence of chloramphenicol by broth microdilution assay"}, "Pseudomonas aeruginosa [27]": {"system": "Pseudomonas aeruginosa", "experiment": "Antibacterial activity against Pseudomonas aeruginosa 91433 assessed as fractional inhibitory concentration in presence of chloramphenicol incubated for 18 hrs by broth microdilution assay"}, "Pseudomonas aeruginosa [28]": {"system": "Pseudomonas aeruginosa", "experiment": "Antibacterial activity against Pseudomonas aeruginosa 259-96918 assessed as reduction in bacterial growth by measuring chloramphenicol MIC at 2 ug/ml incubated for 18 hrs in presence of chloramphenicol by broth microdilution assay (reference value: 1024 ug/ml)", "conditions": "dose 2 µg/ml"}}}
{"smiles": "CO[C@H]1/C=C/O[C@@]2(C)Oc3c(C)c(O)c4c(O)c(c(/C=N/N5CCN(Cc6cn(CCCCCCO[C@@H]7[C@@H](O[C@H]8O[C@H](CO)[C@@H](O)[C@H](N)[C@H]8O)[C@H](N)C[C@H](N)[C@H]7O[C@H]7O[C@H](CN)[C@@H](O)C[C@H]7N)nn6)CC5)c(O)c4c3C2=O)NC(=O)/C(C)=C\\C=C\\[C@H](C)[C@H](O)[C@@H](C)[C@@H](O)[C@@H](C)[C@H](OC(C)=O)[C@@H]1C.Cl.Cl.Cl.Cl.Cl", "values": [{"measurement": "MIC", "setting": "Pseudomonas aeruginosa [1]", "value": 4, "unit": "µg/mL"}, {"measurement": "MIC", "setting": "Pseudomonas aeruginosa [2]", "value": 128, "unit": "µg/mL"}, {"measurement": "MIC", "setting": "Pseudomonas aeruginosa [3]", "value": 4, "unit": "µg/mL"}, {"measurement": "FIC", "setting": "Pseudomonas aeruginosa [4]", "value": "<0.125"}, {"measurement": "FIC", "setting": "Pseudomonas aeruginosa [5]", "value": "<0.125"}, {"measurement": "FIC", "setting": "Pseudomonas aeruginosa [6]", "value": 0.016}, {"measurement": "fold change (FC)", "setting": "Pseudomonas aeruginosa [7]", "value": 32}, {"measurement": "fold change (FC)", "setting": "Pseudomonas aeruginosa [8]", "value": 16}, {"measurement": "survival at 100 mg/kg", "setting": "Pseudomonas aeruginosa [9]", "value": 75, "unit": "%"}, {"measurement": "survival at 75 mg/kg", "setting": "Pseudomonas aeruginosa [10]", "value": 55, "unit": "%"}, {"measurement": "survival at 75 mg/kg", "setting": "Pseudomonas aeruginosa [11]", "value": 10, "unit": "%"}, {"measurement": "mortality at 100 mg/kg", "setting": "Pseudomonas aeruginosa [12]", "value": 100, "unit": "%"}, {"measurement": "fold change (FC)", "setting": "Pseudomonas aeruginosa [13]", "value": 4}, {"measurement": "fold change (FC)", "setting": "Pseudomonas aeruginosa [14]", "value": 4}]}
{"smiles": "CO[C@H]1/C=C/O[C@@]2(C)Oc3c(C)c(O)c4c(O)c(c(/C=N/N5CCN(Cc6cn(CCCCCCCCCCCCO[C@@H]7[C@@H](O[C@H]8O[C@H](CO)[C@@H](O)[C@H](N)[C@H]8O)[C@H](N)C[C@H](N)[C@H]7O[C@H]7O[C@H](CN)[C@@H](O)C[C@H]7N)nn6)CC5)c(O)c4c3C2=O)NC(=O)/C(C)=C\\C=C\\[C@H](C)[C@H](O)[C@@H](C)[C@@H](O)[C@@H](C)[C@H](OC(C)=O)[C@@H]1C.O=C(O)C(F)(F)F.O=C(O)C(F)(F)F.O=C(O)C(F)(F)F.O=C(O)C(F)(F)F.O=C(O)C(F)(F)F", "values": [{"measurement": "MIC", "setting": "Pseudomonas aeruginosa [15]", "value": 0.5, "unit": "µg/mL"}, {"measurement": "MIC", "setting": "Pseudomonas aeruginosa [16]", "value": 1, "unit": "µg/mL"}, {"measurement": "MIC", "setting": "Pseudomonas aeruginosa [17]", "value": 128, "unit": "µg/mL"}, {"measurement": "MIC", "setting": "Pseudomonas aeruginosa [18]", "value": 128, "unit": "µg/mL"}, {"measurement": "fold change (FC)", "setting": "Pseudomonas aeruginosa [19]", "value": 4}, {"measurement": "fold change (FC)", "setting": "Pseudomonas aeruginosa [20]", "value": 4}, {"measurement": "fold change (FC)", "setting": "Acinetobacter baumannii [21]", "value": 0}, {"measurement": "fold change (FC)", "setting": "Acinetobacter baumannii [22]", "value": 0}, {"measurement": "fold change (FC)", "setting": "Enterobacter cloacae", "value": 0}]}
{"smiles": "NC[C@H]1O[C@H](O[C@H]2[C@H](O)[C@@H](O[C@H]3O[C@H](CO)[C@@H](O)[C@H](N)[C@H]3O)[C@H](N)C[C@@H]2N)[C@H](N)C[C@@H]1O", "note": "[TOBRAMYCIN]", "values": [{"measurement": "MIC", "setting": "Pseudomonas aeruginosa [23]", "value": 32, "unit": "µg/mL"}, {"measurement": "MIC", "setting": "Pseudomonas aeruginosa [24]", "value": 1020, "unit": "µg/mL"}, {"measurement": "FIC", "setting": "Pseudomonas aeruginosa [25]", "value": 0.125}, {"measurement": "FIC", "setting": "Pseudomonas aeruginosa [26]", "value": 0.5}, {"measurement": "FIC", "setting": "Pseudomonas aeruginosa [27]", "value": 0.5}]}
{"smiles": "CO[C@H]1/C=C/O[C@@]2(C)Oc3c(C)c(O)c4c(O)c(c(/C=N/N5CCN(C)CC5)c(O)c4c3C2=O)NC(=O)/C(C)=C\\C=C\\[C@H](C)[C@H](O)[C@@H](C)[C@@H](O)[C@@H](C)[C@H](OC(C)=O)[C@@H]1C", "note": "[RIFAMPIN]", "values": [{"measurement": "MIC", "setting": "Pseudomonas aeruginosa [28]", "value": 1020, "unit": "µg/mL"}]}
